{
  "source": "patent US20040038958A1",
  "about": "“Topical treatment of skin diseases” (priority 2002, published 2004)",
  "key": {"[1]": {"system": "interleukin 6", "test": "IL-6 in homogenized mouse ears after TDI challenge (ELISA)", "assay_type": "in vivo, BALB/c-mice", "settings": "24 h after TDI challenge, cilomilast 3%, diflorasone 0.05%; for concentration of interleukin 6 in homogenized mouse ears: topical 2 h before challenge, AWD 12-281 1%; for IL-6, mean inhibition (%) of the TDI induced synthesis: AWD 12-281 3%", "experimental": "(§1) One part of the collected ears was fixed in 4% formaldehyde for histological section and stained with haematoxylin-eosin with respect to dermal thickness and granulocyte accumulation. These parameters were measured in 10 fields at 40 times magnification. The remaining tissue was shock-frozen and stored in liquid nitrogen immediately after sampling. For the determination of biochemical parameters, the mice ears were homogenized under liquid nitrogen. The homogenates were taken in 200 μl RPMI 1640 medium and the protease inhibitor Pefabloc® (1 mmol) was added and the samples were mixed intensively. After centrifugation (10000 g, 10 min, 4° C.), the supernatant was collected and the protein content was determined. The samples were stored at −80° C. until the cytokines were determined. Interleukin (IL) 4, IL-6 and MIP-2 were measured in the samples by ELISA using commercially available kits according to manufacturers instructions."}, "[2]": {"system": "granulocyte influx in the dermis of mice ears", "test": "Histological examination of mouse ear skin after TDI challenge", "assay_type": "in vivo, BALB/c-mice", "settings": "mouse ear skin 24 h after TDI challenge; topical treatment", "experimental": "as §1"}, "[3]": {"system": "mice sensitized to TDI", "test": "Mouse ear swelling test in mice sensitized to toluene-2,4-diisocyanate (TDI), topical application", "assay_type": "in vivo, BALB/c-mice", "settings": "for TDI-induced ear swelling: AWD 12-281 1%, cilomilast 3%, diflorasone 0.05%", "experimental": "FIG. 6: Effect of PDE 4 inhibitors on TDI induced ear swelling in mice. […] After 1 h (grey bars) groups of mice were treated with 3% AWD 12-281, 10% cilomilast or left untreated (TDI). After 24 h, ear swelling was determined (black bars). […] Female BALB/c-mice were obtained from Charles River (Sulzfeld, Germany) at the age of 8 weeks (20 g body weight). All animals were healthy and were housed in groups of six mice per cage at 22° C. with a 12-h light/dark-cycle. Water and a standard diet (Altromin, […], Germany) were available ad libitum. After settling in for 1 week, the abdominal skin of the mice was shaved and depilated with Veet®. Subsequently, the horny layers of the abdominal skin were stripped off ten times with adhesive tapes. […] Before as well as 24 h after challenge, the ear thickness was measured with a cutimeter (model 7309, Mitutoyo, Neuss, Germany) The swelling was calculated by comparison of the values before challenge with 24 h after challenge. […] The other mice were equally distributed to the treatment groups (n=6) according to their swelling intensity, so that each group contained animals which had responded to varying extents. They had to rest until the ear thickness had reached almost a normal level after 7 days. To exclude residues of the allergen on the ears, the untreated right ears were used for the main experiment. One group of mice (n=6) was not sensitized and challenged. […] Two hours before TDI-challenge, the third and fourth group (each n=6) were treated with 20 μl (10 μl on both, the inner and outer surface) AWD 12-281 (1%=200 μg) or 20 μl cilomilast (3%=600 μg; each in acetone/DMSO 9:1) to the right ears. […] These mice were sacrificed by cervical dislocation 24 hours after TDI challenge and the ears were collected (see below). […] Five weeks after the first challenge, the animals treated with AWD 12-281 (1%) and cilomilast (3%) “therapeutically” were challenged again. Before challenge, one group was treated with AWD 12-281 (3%)."}, "[4]": {"system": "IL-4", "settings": "Griswold et al., 1998; cited from earlier work"}, "[5]": {"system": "chronic obstructive pulmonary disease", "settings": "Phase II/III clinical trials; Giembycz, 2001, Dyke & Montana, 2002; cited from earlier work"}, "[6]": {"system": "macrophage inflammatory protein 2", "test": "MIP-2 in homogenized mouse ears after TDI challenge (ELISA)", "assay_type": "in vivo, BALB/c-mice", "settings": "24 h after TDI challenge, cilomilast 3%, diflorasone 0.05%; for concentration of macrophage inflammatory protein 2 in homogenized mouse ears: topical 2 h before challenge, AWD 12-281 1%; for MIP-2, mean inhibition (%) of the TDI induced synthesis: AWD 12-281 3%", "experimental": "as §1"}, "[7]": {"system": "interleukin 4", "test": "IL-4 in homogenized mouse ears after TDI challenge (ELISA)", "assay_type": "in vivo, BALB/c-mice", "settings": "24 h after TDI challenge, cilomilast 3%, diflorasone 0.05%; for concentration of interleukin 4 in homogenized mouse ears: topical 2 h before challenge, AWD 12-281 1%; for IL-4, mean inhibition (%) of the TDI induced synthesis: AWD 12-281 3%", "experimental": "as §1"}, "[8]": {"settings": "single topical application 2 h before TDI challenge, 1, 5 and 24 h after challenge"}, "[9]": {"settings": "topical 1 h after TDI challenge (therapeutic), 24 h after challenge"}},
  "note": "“Also recorded” adds a separate entry of the source.",
  "data": [
    {"smiles": "COc1ccc([C@]2(C#N)CC[C@@H](C(=O)O)CC2)cc1OC1CCCC1", "note": "[cilomilast]", "values": [
      {"measurement": "concentration of interleukin 6 in homogenized mouse ears", "setting": "[1]", "result": "inhibited this response significantly"},
      {"measurement": "concentration of interleukin 6 in homogenized mouse ears", "setting": "[1]; listed as Cilomilast", "result": "reduced the concentration of all mediators significantly"},
      {"measurement": "IL-6, mean inhibition (%) of the TDI induced synthesis", "setting": "[1]", "result": 49, "unit": "%"},
      {"measurement": "edema and influx of inflammatory cells (mainly granulocytes)", "setting": "[2]", "result": "inhibited these inflammatory processes markedly"},
      {"measurement": "TDI-induced ear swelling", "setting": "[3]; [8]", "result": "inhibited the TDI-induced swelling significantly at all measured times"},
      {"measurement": "TDI-induced ear swelling", "setting": "[3]; [9]", "result": "lacks significant inhibitory effects; also recorded: failed to do so"},
      {"measurement": "TDI-induced ear swelling", "setting": "[3]; topical 1 h after TDI challenge (therapeutic), 24 h after challenge, listed as Cilomilast", "result": "no significant inhibition; also recorded: slight, but not significant reduction of the swelling"},
      {"measurement": "TDI induced ear swelling", "setting": "[3]; treated 1 h after 0.5% TDI, 3% AWD 12-281, 10% cilomilast, ear swelling after 24 h (FIG. 6)", "result": "did not show a significant inhibitory effect"},
      {"measurement": "IL-4 in vivo", "setting": "[4]", "result": "inhibit IL-4 in vivo"},
      {"measurement": "lung function", "setting": "[5]", "result": "clinically significant increase in lung function"},
      {"measurement": "concentration of macrophage inflammatory protein 2 in homogenized mouse ears", "setting": "[6]", "result": "diminished the increase of the MIP-2 concentration significantly"},
      {"measurement": "concentration of macrophage inflammatory protein 2 in homogenized mouse ears", "setting": "[6]; listed as Cilomilast", "result": "reduced the concentration of all mediators significantly"},
      {"measurement": "MIP-2, mean inhibition (%) of the TDI induced synthesis", "setting": "[6]", "result": 66, "unit": "%"},
      {"measurement": "concentration of interleukin 4 in homogenized mouse ears", "setting": "[7]", "result": "inhibited the increase significantly"},
      {"measurement": "concentration of interleukin 4 in homogenized mouse ears", "setting": "[7]; listed as Cilomilast", "result": "reduced the concentration of all mediators significantly"},
      {"measurement": "IL-4, mean inhibition (%) of the TDI induced synthesis", "setting": "[7]", "result": 74, "unit": "%"}
    ]},
    {"smiles": "CC(=O)OCC(=O)[C@@]1(OC(C)=O)[C@@H](C)C[C@H]2[C@@H]3C[C@H](F)C4=CC(=O)C=C[C@]4(C)[C@@]3(F)[C@@H](O)C[C@@]21C", "note": "[diflorasone, reference compound]", "values": [
      {"measurement": "concentration of interleukin 6 in homogenized mouse ears", "setting": "[1]", "result": "reduced the concentration of all mediators significantly; also recorded: inhibited this response significantly"},
      {"measurement": "IL-6, mean inhibition (%) of the TDI induced synthesis", "setting": "[1]", "result": 52, "unit": "%"},
      {"measurement": "edema and influx of inflammatory cells (mainly granulocytes)", "setting": "[2]", "result": "inhibited these inflammatory processes markedly"},
      {"measurement": "TDI-induced ear swelling", "setting": "[3]; [8]", "result": "inhibited the TDI-induced swelling significantly at all measured times"},
      {"measurement": "TDI-induced ear swelling", "setting": "[3]; [9]", "result": "inhibited the TDI induced ear swelling significantly"},
      {"measurement": "concentration of macrophage inflammatory protein 2 in homogenized mouse ears", "setting": "[6]", "result": "reduced the concentration of all mediators significantly; also recorded: diminished the increase of the MIP-2 concentration significantly"},
      {"measurement": "MIP-2, mean inhibition (%) of the TDI induced synthesis", "setting": "[6]", "result": 76, "unit": "%"},
      {"measurement": "concentration of interleukin 4 in homogenized mouse ears", "setting": "[7]", "result": "reduced the concentration of all mediators significantly; also recorded: inhibited the increase significantly"},
      {"measurement": "IL-4, mean inhibition (%) of the TDI induced synthesis", "setting": "[7]", "result": 50, "unit": "%"}
    ]}
  ]
}
